Source: PubChem BioAssay (NCI)
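Protocol summary: plate cells (96-well), add compound at 5 concentrations, incubate 48 h, interpolate endpoints linearly. GI50: concentration for 50% inhibition of growth. TGI: total growth inhibition.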

What was measured:
Experiment in all cases: growth of human tumour cells (NCI), 48 h
HOP-92 NSCLC = test system: HOP-92 NSCLC
MOLT-4 leukemia = test system: MOLT-4 leukemia
SF-539 CNS = test system: SF-539 CNS
PC-3 prostate = test system: PC-3 prostate
RPMI-8226 leukemia = test system: RPMI-8226 leukemia
EKVX NSCLC = test system: EKVX NSCLC
SNB-19 CNS = test system: SNB-19 CNS
SK-MEL-28 melanoma = test system: SK-MEL-28 melanoma
RXF 393 renal = test system: RXF 393 renal
UO-31 renal = test system: UO-31 renal
MDA-MB-231 breast = test system: MDA-MB-231 breast
OVCAR-5 ovarian = test system: OVCAR-5 ovarian
BT-549 breast = test system: BT-549 breast
SF-295 CNS = test system: SF-295 CNS
NCI-H522 lung = test system: NCI-H522 lung
CCRF-CEM leukemia = test system: CCRF-CEM leukemia
K-562 leukemia = test system: K-562 leukemia
SW-620 colon = test system: SW-620 colon
OVCAR-8 ovarian = test system: OVCAR-8 ovarian
SK-MEL-2 melanoma = test system: SK-MEL-2 melanoma
OVCAR-4 ovarian = test system: OVCAR-4 ovarian
ACHN renal = test system: ACHN renal
LOX IMVI melanoma = test system: LOX IMVI melanoma
HS 578T breast = test system: HS 578T breast
UACC-257 melanoma = test system: UACC-257 melanoma
SF-268 CNS = test system: SF-268 CNS
NCI-H460 lung = test system: NCI-H460 lung
IGROV1 ovarian = test system: IGROV1 ovarian
U251 CNS = test system: U251 CNS
CAKI-1 renal = test system: CAKI-1 renal
T-47D breast = test system: T-47D breast
HCT-116 colon = test system: HCT-116 colon
HOP-62 NSCLC = test system: HOP-62 NSCLC
OVCAR-3 ovarian = test system: OVCAR-3 ovarian
UACC-62 melanoma = test system: UACC-62 melanoma
NCI-H226 lung = test system: NCI-H226 lung
SK-OV-3 ovarian = test system: SK-OV-3 ovarian
KM12 colon = test system: KM12 colon
SNB-75 CNS = test system: SNB-75 CNS
SN12C renal = test system: SN12C renal
786-0 renal = test system: 786-0 renal
HT29 colon = test system: HT29 colon
HCC-2998 colon = test system: HCC-2998 colon
HCT-15 colon = test system: HCT-15 colon
SK-MEL-5 melanoma = test system: SK-MEL-5 melanoma
COLO 205 colon = test system: COLO 205 colon
NCI/ADR-RES ovarian = test system: NCI/ADR-RES ovarian
MDA-MB-435 = test system: MDA-MB-435
M14 melanoma = test system: M14 melanoma
MCF7 breast = test system: MCF7 breast
A549 NSCLC = test system: A549 NSCLC
DU-145 prostate = test system: DU-145 prostate
NCI-H23 lung = test system: NCI-H23 lung

Q: With O=C1CS/C(=N/S(=O)(=O)c2ccc(N3N=C4c5ccccc5CC4C3c3cccs3)cc2)N(c2ccccc2)C1 (stereo unspecified) as the molecule, how does the GI50 (HOP-92 NSCLC) read?
A: 79.9 µM

Q: What about the TGI (HOP-92 NSCLC) of the same molecule?
A: > 100 µM

Q: And the GI50 (MOLT-4 leukemia)?
A: 0.0146 µM

Q: What about the TGI (MOLT-4 leukemia) of the same molecule?
A: 34.8 µM

Q: What about the GI50 (SF-539 CNS) of the same molecule?
A: 27.8 µM

Q: What about the TGI (SF-539 CNS) of the same molecule?
A: 99.2 µM

Q: What about the GI50 (PC-3 prostate) of the same molecule?
A: 45 µM

Q: And the TGI (PC-3 prostate)?
A: > 100 µM

Q: And the GI50 (RPMI-8226 leukemia)?
A: 31 µM

Q: What about the TGI (RPMI-8226 leukemia) of the same molecule?
A: > 100 µM

Q: And the GI50 (EKVX NSCLC)?
A: 39.5 µM

Q: And the TGI (EKVX NSCLC)?
A: > 100 µM

Q: What about the GI50 (SNB-19 CNS) of the same molecule?
A: 55.7 µM

Q: And the TGI (SNB-19 CNS)?
A: > 100 µM

Q: What about the GI50 (SK-MEL-28 melanoma) of the same molecule?
A: > 100 µM

Q: What about the TGI (SK-MEL-28 melanoma) of the same molecule?
A: > 100 µM

Q: What about the GI50 (RXF 393 renal) of the same molecule?
A: 41 µM

Q: And the TGI (RXF 393 renal)?
A: > 100 µM

Q: And the GI50 (UO-31 renal)?
A: 69.3 µM

Q: What about the TGI (UO-31 renal) of the same molecule?
A: > 100 µM

Q: What about the GI50 (MDA-MB-231 breast) of the same molecule?
A: 21.4 µM

Q: What about the TGI (MDA-MB-231 breast) of the same molecule?
A: 84.8 µM

Q: And the GI50 (OVCAR-5 ovarian)?
A: 34.6 µM

Q: What about the TGI (OVCAR-5 ovarian) of the same molecule?
A: > 100 µM

Q: What about the GI50 (BT-549 breast) of the same molecule?
A: 21.4 µM

Q: And the TGI (BT-549 breast)?
A: > 100 µM

Q: And the GI50 (SF-295 CNS)?
A: 32.7 µM

Q: What about the TGI (SF-295 CNS) of the same molecule?
A: > 100 µM

Q: What about the GI50 (NCI-H522 lung) of the same molecule?
A: 23.8 µM

Q: What about the TGI (NCI-H522 lung) of the same molecule?
A: > 100 µM

Q: And the GI50 (CCRF-CEM leukemia)?
A: 36.8 µM

Q: What about the TGI (CCRF-CEM leukemia) of the same molecule?
A: > 100 µM

Q: And the GI50 (K-562 leukemia)?
A: 10.3 µM

Q: What about the TGI (K-562 leukemia) of the same molecule?
A: 93.5 µM

Q: And the GI50 (SW-620 colon)?
A: 45.2 µM

Q: And the TGI (SW-620 colon)?
A: > 100 µM

Q: What about the GI50 (OVCAR-8 ovarian) of the same molecule?
A: 25.4 µM

Q: And the TGI (OVCAR-8 ovarian)?
A: > 100 µM

Q: What about the GI50 (SK-MEL-2 melanoma) of the same molecule?
A: 60.2 µM

Q: What about the TGI (SK-MEL-2 melanoma) of the same molecule?
A: > 100 µM

Q: And the GI50 (OVCAR-4 ovarian)?
A: > 100 µM

Q: What about the TGI (OVCAR-4 ovarian) of the same molecule?
A: > 100 µM

Q: And the GI50 (ACHN renal)?
A: 22.1 µM

Q: What about the TGI (ACHN renal) of the same molecule?
A: 78.7 µM

Q: What about the GI50 (LOX IMVI melanoma) of the same molecule?
A: 21.2 µM

Q: What about the TGI (LOX IMVI melanoma) of the same molecule?
A: 51 µM

Q: What about the GI50 (HS 578T breast) of the same molecule?
A: 20.5 µM

Q: What about the TGI (HS 578T breast) of the same molecule?
A: 83.7 µM

Q: What about the GI50 (UACC-257 melanoma) of the same molecule?
A: 42.3 µM

Q: And the TGI (UACC-257 melanoma)?
A: > 100 µM

Q: And the GI50 (SF-268 CNS)?
A: > 100 µM

Q: What about the TGI (SF-268 CNS) of the same molecule?
A: > 100 µM

Q: And the GI50 (NCI-H460 lung)?
A: > 100 µM

Q: And the TGI (NCI-H460 lung)?
A: > 100 µM

Q: What about the GI50 (IGROV1 ovarian) of the same molecule?
A: 19.5 µM

Q: And the TGI (IGROV1 ovarian)?
A: > 100 µM

Q: What about the GI50 (U251 CNS) of the same molecule?
A: 28 µM

Q: What about the TGI (U251 CNS) of the same molecule?
A: > 100 µM

Q: What about the GI50 (CAKI-1 renal) of the same molecule?
A: 74.5 µM

Q: What about the TGI (CAKI-1 renal) of the same molecule?
A: > 100 µM

Q: And the GI50 (T-47D breast)?
A: 69.2 µM

Q: What about the TGI (T-47D breast) of the same molecule?
A: > 100 µM

Q: What about the GI50 (HCT-116 colon) of the same molecule?
A: 12.5 µM

Q: And the TGI (HCT-116 colon)?
A: 27.4 µM

Q: What about the GI50 (HOP-62 NSCLC) of the same molecule?
A: 17.4 µM

Q: And the TGI (HOP-62 NSCLC)?
A: 49.2 µM

Q: And the GI50 (OVCAR-3 ovarian)?
A: > 100 µM

Q: What about the TGI (OVCAR-3 ovarian) of the same molecule?
A: > 100 µM

Q: And the GI50 (UACC-62 melanoma)?
A: 16.1 µM

Q: What about the TGI (UACC-62 melanoma) of the same molecule?
A: 38.9 µM

Q: What about the GI50 (NCI-H226 lung) of the same molecule?
A: 22.3 µM

Q: And the TGI (NCI-H226 lung)?
A: 93.8 µM

Q: What about the GI50 (SK-OV-3 ovarian) of the same molecule?
A: > 100 µM

Q: And the TGI (SK-OV-3 ovarian)?
A: > 100 µM

Q: And the GI50 (KM12 colon)?
A: 28.4 µM

Q: What about the TGI (KM12 colon) of the same molecule?
A: 88.4 µM

Q: What about the GI50 (SNB-75 CNS) of the same molecule?
A: > 100 µM

Q: And the TGI (SNB-75 CNS)?
A: > 100 µM

Q: And the GI50 (SN12C renal)?
A: 34.3 µM

Q: And the TGI (SN12C renal)?
A: > 100 µM

Q: What about the GI50 (786-0 renal) of the same molecule?
A: 22.1 µM

Q: What about the TGI (786-0 renal) of the same molecule?
A: > 100 µM

Q: And the GI50 (HT29 colon)?
A: 61 µM

Q: And the TGI (HT29 colon)?
A: > 100 µM

Q: What about the GI50 (HCC-2998 colon) of the same molecule?
A: 20.5 µM

Q: What about the TGI (HCC-2998 colon) of the same molecule?
A: 48.5 µM

Q: What about the GI50 (HCT-15 colon) of the same molecule?
A: 35.5 µM

Q: And the TGI (HCT-15 colon)?
A: > 100 µM

Q: What about the GI50 (SK-MEL-5 melanoma) of the same molecule?
A: 38.2 µM

Q: And the TGI (SK-MEL-5 melanoma)?
A: > 100 µM

Q: What about the GI50 (COLO 205 colon) of the same molecule?
A: 57.2 µM

Q: And the TGI (COLO 205 colon)?
A: > 100 µM

Q: What about the GI50 (NCI/ADR-RES ovarian) of the same molecule?
A: > 100 µM

Q: What about the TGI (NCI/ADR-RES ovarian) of the same molecule?
A: > 100 µM

Q: And the GI50 (MDA-MB-435)?
A: 29.5 µM

Q: What about the TGI (MDA-MB-435) of the same molecule?
A: > 100 µM

Q: And the GI50 (M14 melanoma)?
A: 39.1 µM

Q: And the TGI (M14 melanoma)?
A: > 100 µM

Q: What about the GI50 (MCF7 breast) of the same molecule?
A: 88.8 µM

Q: And the TGI (MCF7 breast)?
A: > 100 µM

Q: What about the GI50 (A549 NSCLC) of the same molecule?
A: 47.2 µM

Q: What about the TGI (A549 NSCLC) of the same molecule?
A: > 100 µM

Q: What about the GI50 (DU-145 prostate) of the same molecule?
A: 30.7 µM

Q: What about the TGI (DU-145 prostate) of the same molecule?
A: > 100 µM

Q: What about the GI50 (NCI-H23 lung) of the same molecule?
A: 24.2 µM

Q: And the TGI (NCI-H23 lung)?
A: 63.5 µM
